This note sets out measurements from PubChem BioAssay AID651642 (Sanford-Burnham Center for Chemical Genomics, 2012).

One experiment relates to HL-1. Kind of experiment: protection of cardiomyocytes from stress damage, SAR follow-up, cell-based, panel, H9c2 and HL-1, H2O2, 2-deoxyglucose, ATP luminescence (AID 651642).
Another experiment has as its system H9c2. Described as above.
Setting [1] is: H9c2/HL-1 cardiomyocyte 2-deoxyglucose damage, run 1, with 2-deoxyglucose.
Where [2] appears, read: H9c2/HL-1 cardiomyocyte 2-deoxyglucose damage, run 2, with 2-deoxyglucose.
The mark [3] stands for this setting: H9c2/HL-1 cardiomyocyte 2-deoxyglucose damage, run 3, with 2-deoxyglucose.
[4] abbreviates: H9c2/HL-1 cardiomyocyte 2-deoxyglucose damage, run 4, with 2-deoxyglucose.
The mark [5] stands for this setting: H9c2/HL-1 cardiomyocyte H2O2 oxidative damage, run 1, with H2O2.
Where [6] appears, read: H9c2/HL-1 cardiomyocyte H2O2 oxidative damage, run 2, with H2O2.
[7] abbreviates: H9c2/HL-1 cardiomyocyte H2O2 oxidative damage, run 3, with H2O2.
Setting [8] is: H9c2/HL-1 cardiomyocyte H2O2 oxidative damage, run 4, with H2O2.
Setting [9] is: H9c2/HL-1 cardiomyocyte 2-deoxyglucose damage, mean of runs, with 2-deoxyglucose, mean IC50 across panel.
The mark [10] stands for this setting: H9c2/HL-1 cardiomyocyte H2O2 oxidative damage, mean of runs, with H2O2, mean IC50 across panel.

As usually defined, the IC50 is the concentration needed to halve the response being measured. For `COc1cc(-c2cc(C(=O)Nc3cccc(C#N)c3)c3ccccc3n2)cc(OC)c1OC`, the IC50 in the experiment on HL-1 (setting [1]) is 5.37 µM; in the experiment with HL-1 (setting [2]), 7.28 µM; in the experiment on HL-1 (setting [3]) it was more than 79 µM; in the experiment on HL-1 (setting [4]) it was more than 79 µM; in the experiment on HL-1 (setting [5]), more than 79 µM; in the experiment on HL-1 (setting [6]), more than 79 µM. For the same molecule, the IC50 was 6.09 µM in the experiment on HL-1 (setting [7]); 11.1 µM in the experiment on HL-1 (setting [8]); more than 79 µM in the experiment with H9c2 (setting [9]); more than 79 µM in the experiment with H9c2 (setting [1]); more than 79 µM with H9c2 (setting [2]); more than 79 µM with H9c2 (setting [3]). Also, the IC50 in the experiment on H9c2 (setting [4]) was more than 79 µM; in the experiment with H9c2 (setting [5]), 7.93 µM; in the experiment with H9c2 (setting [6]), 8.58 µM; in the experiment with H9c2 (setting [7]), more than 79 µM; in the experiment on H9c2 (setting [8]) it was 6.2 µM.

With `CCOC(=O)c1cccc(NC(=O)c2cc(-c3cc(OC)c(OC)c(OC)c3)nc3c(Cl)cccc23)c1`, the IC50 in the experiment on HL-1 (setting [9]), with HL-1 (setting [1]), in the experiment with HL-1 (setting [2]), in the experiment on HL-1 (setting [3]), with HL-1 (setting [4]) and with HL-1 (setting [5]) was more than 79 µM each time. Further, the IC50 with HL-1 (setting [6]) was 11.1 µM; with HL-1 (setting [7]), more than 79 µM; in the experiment with HL-1 (setting [8]) it was more than 79 µM; in the experiment with H9c2 (setting [9]), more than 79 µM; with H9c2 (setting [1]), more than 79 µM; in the experiment with H9c2 (setting [2]), more than 79 µM. Further, the IC50 in the experiment with H9c2 (setting [3]) was more than 79 µM; in the experiment on H9c2 (setting [4]) it was more than 79 µM; in the experiment with H9c2 (setting [5]), more than 79 µM; in the experiment with H9c2 (setting [6]) it was 30.3 µM; in the experiment with H9c2 (setting [7]) it was more than 79 µM; in the experiment with H9c2 (setting [8]), more than 79 µM.

As for `COc1ccc2c(c1OC)C(=O)N1c3ccccc3C(=O)N(Cc3ccccc3Cl)C21` (stereo unspecified), the IC50 is 2.3 µM in the experiment on HL-1 (setting [9]); 1.05 µM with HL-1 (setting [1]); 1.56 µM in the experiment with HL-1 (setting [2]); 2.66 µM in the experiment on HL-1 (setting [3]); 3.94 µM with HL-1 (setting [4]); more than 79 µM in the experiment with HL-1 (setting [10]). Also, the IC50 with HL-1 (setting [5]) is more than 79 µM; with HL-1 (setting [6]) it was more than 79 µM; with HL-1 (setting [7]), more than 79 µM; in the experiment with HL-1 (setting [8]) it was more than 79 µM; in the experiment on H9c2 (setting [9]), 15.8 µM; in the experiment on H9c2 (setting [1]), 17 µM. Further, the half-maximal inhibitory concentration (IC50) with H9c2 (setting [2]) is 20.1 µM; in the experiment on H9c2 (setting [3]), 12 µM; in the experiment with H9c2 (setting [4]) it was 14.2 µM; in the experiment with H9c2 (setting [5]) it was 0.558 µM; in the experiment with H9c2 (setting [6]), 0.745 µM; in the experiment with H9c2 (setting [7]), more than 79 µM. This molecule showed an IC50 in the experiment with H9c2 (setting [8]) of more than 79 µM.

In the case of `COc1ccc2c(c1OC)C(=O)N1c3ccccc3C(=O)N(Cc3ccncc3)C21` (stereo unspecified), the IC50 in the experiment on HL-1 (setting [9]), in the experiment on HL-1 (setting [1]), in the experiment on HL-1 (setting [2]), with HL-1 (setting [3]), in the experiment on HL-1 (setting [4]) and in the experiment with HL-1 (setting [5]) was more than 79 µM throughout. Moreover, the IC50 in the experiment with HL-1 (setting [6]), in the experiment with HL-1 (setting [7]), in the experiment with HL-1 (setting [8]), in the experiment on H9c2 (setting [9]), with H9c2 (setting [1]) and in the experiment with H9c2 (setting [2]) was more than 79 µM in each case. For the same molecule, the IC50 in the experiment with H9c2 (setting [3]) is more than 79 µM; with H9c2 (setting [4]), more than 79 µM; with H9c2 (setting [5]), more than 79 µM; in the experiment on H9c2 (setting [6]), 55.3 µM; in the experiment with H9c2 (setting [7]) it was more than 79 µM; in the experiment with H9c2 (setting [8]) it was more than 79 µM.

Take `COc1cc(-c2cc(C(=O)Nc3cccc(C(C)=O)c3)c3cccc(Cl)c3n2)cc(OC)c1OC`: the IC50 in the experiment on HL-1 (setting [9]), in the experiment on HL-1 (setting [1]), in the experiment on HL-1 (setting [2]), in the experiment with HL-1 (setting [3]), with HL-1 (setting [4]) and in the experiment with HL-1 (setting [5]) was more than 79 µM throughout. The IC50 with HL-1 (setting [6]) is more than 79 µM; in the experiment on HL-1 (setting [7]), 2 µM; with HL-1 (setting [8]), 2.5 µM; in the experiment on H9c2 (setting [9]), more than 79 µM; in the experiment with H9c2 (setting [1]) it was more than 79 µM; with H9c2 (setting [2]), more than 79 µM. In addition, the IC50 in the experiment on H9c2 (setting [3]), with H9c2 (setting [4]), with H9c2 (setting [10]), with H9c2 (setting [5]), in the experiment with H9c2 (setting [6]) and in the experiment on H9c2 (setting [7]) was more than 79 µM each time. In the experiment on H9c2 (setting [8]), the IC50 was more than 79 µM.

In the case of `COc1cc(-c2cc(C(=O)Nc3cccc(C(=O)NC4CC4)c3)c3ccccc3n2)cc(OC)c1OC`, the IC50 is 6.39 µM with HL-1 (setting [9]); 3.71 µM in the experiment on HL-1 (setting [1]); 4.41 µM in the experiment on HL-1 (setting [2]); 7.05 µM with HL-1 (setting [3]); 10.4 µM in the experiment with HL-1 (setting [4]); 6.68 µM with HL-1 (setting [10]). Besides, the IC50 with HL-1 (setting [5]) amounted to 4.24 µM; with HL-1 (setting [6]), 4.83 µM; in the experiment with HL-1 (setting [7]), 7.07 µM; in the experiment with HL-1 (setting [8]), 10.6 µM; with H9c2 (setting [9]) it was 19.6 µM; in the experiment with H9c2 (setting [1]), 19.4 µM. The IC50 was 21 µM with H9c2 (setting [2]); 18.4 µM in the experiment with H9c2 (setting [3]); 19.8 µM in the experiment with H9c2 (setting [4]); 2.51 µM in the experiment with H9c2 (setting [10]); 2 µM with H9c2 (setting [5]); 2.73 µM in the experiment with H9c2 (setting [6]). Moreover, the IC50 with H9c2 (setting [7]) was 2.22 µM; with H9c2 (setting [8]) it was 3.11 µM.
